Reference: ChEMBL document CHEMBL5375973, “Design and Synthesis of Novel Near-Infrared Fluorescence Probes Based on an Open Conformation of a Cytochrome P450 1B1 Complex for Molecular Imaging of Colorectal Tumors” (J Med Chem, 2023)
pIC50, pKd: −log10 of the molar value. Values belong to the compound of their own block, whether it stands above or below them.

Experiments:
Cytochrome P450 1A1 = target: T1, Cytochrome P450 1A1 (Homo sapiens, UniProt P04798); assay: Inhibition of recombinant CYP1A1 (unknown origin) using 7-ethoxyresorufin as substrate preincubated for 5 mins followed by NADPH addition incubated for 15 mins by EROD assay; format: ADME
T1 sequence (P04798 whole entry): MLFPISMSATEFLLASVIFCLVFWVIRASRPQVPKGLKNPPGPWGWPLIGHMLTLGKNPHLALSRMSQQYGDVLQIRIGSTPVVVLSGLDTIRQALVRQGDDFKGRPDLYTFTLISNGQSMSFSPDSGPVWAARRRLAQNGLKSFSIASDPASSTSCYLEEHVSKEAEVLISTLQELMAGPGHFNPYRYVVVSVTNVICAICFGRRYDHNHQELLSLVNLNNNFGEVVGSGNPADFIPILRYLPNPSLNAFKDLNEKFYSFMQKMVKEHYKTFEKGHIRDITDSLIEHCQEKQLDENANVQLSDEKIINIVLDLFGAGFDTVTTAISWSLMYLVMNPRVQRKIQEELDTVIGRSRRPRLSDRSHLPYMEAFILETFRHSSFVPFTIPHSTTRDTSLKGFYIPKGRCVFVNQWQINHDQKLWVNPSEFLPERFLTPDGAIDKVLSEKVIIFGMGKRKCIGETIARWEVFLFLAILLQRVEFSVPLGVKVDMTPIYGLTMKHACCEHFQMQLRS

Cytochrome P450 1A2 = target: T2, Cytochrome P450 1A2 (Homo sapiens, UniProt P05177); assay: Inhibition of recombinant CYP1A2 (unknown origin) using 7-ethoxyresorufin as substrate preincubated for 5 mins followed by NADPH addition incubated for 50 mins by EROD assay; format: ADME
T2 sequence (P05177 whole entry): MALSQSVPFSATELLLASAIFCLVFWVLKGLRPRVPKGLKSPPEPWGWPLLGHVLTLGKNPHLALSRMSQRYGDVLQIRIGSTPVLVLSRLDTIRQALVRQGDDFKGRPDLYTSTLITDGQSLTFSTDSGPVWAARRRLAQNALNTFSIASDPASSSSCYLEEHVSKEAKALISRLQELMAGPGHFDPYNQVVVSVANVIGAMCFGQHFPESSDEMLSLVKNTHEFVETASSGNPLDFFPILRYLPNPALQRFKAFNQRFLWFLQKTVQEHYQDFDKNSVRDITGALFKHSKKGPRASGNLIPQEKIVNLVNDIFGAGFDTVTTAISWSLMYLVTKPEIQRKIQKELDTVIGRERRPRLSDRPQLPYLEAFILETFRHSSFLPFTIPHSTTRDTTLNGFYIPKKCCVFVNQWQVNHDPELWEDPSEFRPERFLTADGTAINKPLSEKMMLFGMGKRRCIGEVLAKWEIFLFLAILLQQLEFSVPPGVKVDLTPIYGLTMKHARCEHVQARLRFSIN

Cytochrome P450 1B1 [1] = target: T3, Cytochrome P450 1B1 (Homo sapiens, UniProt Q16678); assay: Inhibition of recombinant CYP1B1 (unknown origin) using 7-ethoxyresorufin as substrate preincubated for 5 mins followed by NADPH addition incubated for 35 mins by EROD assay; format: ADME
T3 sequence (Q16678 whole entry): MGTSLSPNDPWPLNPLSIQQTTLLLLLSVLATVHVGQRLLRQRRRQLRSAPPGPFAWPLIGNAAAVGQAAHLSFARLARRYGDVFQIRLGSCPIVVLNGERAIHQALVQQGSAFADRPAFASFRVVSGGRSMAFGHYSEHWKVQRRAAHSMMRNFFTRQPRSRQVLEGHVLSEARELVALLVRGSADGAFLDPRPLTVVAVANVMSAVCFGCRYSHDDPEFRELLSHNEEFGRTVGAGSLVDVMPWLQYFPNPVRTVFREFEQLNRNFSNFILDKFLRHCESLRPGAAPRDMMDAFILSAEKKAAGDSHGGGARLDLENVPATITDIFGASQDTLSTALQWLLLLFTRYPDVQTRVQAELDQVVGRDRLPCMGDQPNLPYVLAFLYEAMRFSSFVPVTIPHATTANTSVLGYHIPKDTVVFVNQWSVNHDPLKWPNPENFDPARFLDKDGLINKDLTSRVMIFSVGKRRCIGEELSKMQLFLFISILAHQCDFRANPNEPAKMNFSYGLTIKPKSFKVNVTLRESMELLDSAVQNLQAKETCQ

HFF-1 = assay: Cytotoxicity against human HFF-1 cells at 1 to 10 uM incubated for 24 hrs by MTT assay; format: toxicity, cell-based; conditions: hff-1, 24 h, dose 1-10 µM
HCT-15 = assay: Cytotoxicity against human HCT-15 cells assessed as cell viability at 10 uM incubated for 24 hrs by MTT assay; format: functional; conditions: read-out: Activity
Cytochrome P450 1B1 [2] = target: T3, Cytochrome P450 1B1; assay: Binding affinity to CYP1B1 in human HCT-15 cells assessed as apparent dissociation constant incubated for 1 hr by flow cytometry analysis; format: ADME, cell-based; conditions: read-out: Kd(app)
[3] = Stability of the compound assessed as drug degradation observed after 24 hrs by HPLC analysis; format: physicochemical
Cytochrome P450 1B1 [4] = target: T3, Cytochrome P450 1B1; assay: Binding affinity to CYP1B1 in human HFF-1 cells assessed as increase in fluorescence signal at 0.5 to 1 uM incubated for 1 hr by DAPI staining based confocal laser scanning microscopic analysis; format: ADME, cell-based; conditions: hff-1, 1 h, dose 0.5-1 µM
Cytochrome P450 1B1 [5] = target: T3, Cytochrome P450 1B1; assay: Binding affinity to CYP1B1 in human HCT-15 cells assessed as increase in fluorescence signal at 0.5 to 1 uM incubated for 1 hr by DAPI staining based confocal laser scanning microscopic analysis; format: ADME, cell-based; conditions: hct-15, 1 h, dose 0.5-1 µM
Cytochrome P450 1B1 [6] = target: T3, Cytochrome P450 1B1; assay: Binding affinity to CYP1B1 in human HCT-15 cells assessed as increase in fluorescence signal at cytoplasm at 0.5 to 1 uM incubated for 1 hr by DAPI staining based confocal laser scanning microscopic analysis; format: ADME, cell-based; conditions: hct-15, 1 h, dose 0.5-1 µM
Cytochrome P450 1B1 [7] = target: T3, Cytochrome P450 1B1; assay: Binding affinity to CYP1B1 in human HCT-15 cells assessed as increase in fluorescence signal at nucleus at 0.5 to 1 uM incubated for 1 hr by DAPI staining based confocal laser scanning microscopic analysis; format: ADME, cell-based; conditions: hct-15, 1 h, dose 0.5-1 µM
Cytochrome P450 1B1 [8] = target: T3, Cytochrome P450 1B1; assay: Binding affinity to CYP1B1 in human HCT-15 cells assessed as increase in fluorescence signal at 0.5 to 1 uM incubated for 1 hr in presence of compound 14c by DAPI staining based confocal laser scanning microscopic analysis; format: ADME, cell-based; conditions: hct-15, 1 h, dose 0.5-1 µM
[9] = Drug distribution in BALB/C mouse xenografted with human HCT-15 cells assessed as increase in fluorescence intensity in tumor at 12 nmol at iv administration observed after 2 hr by IVIS imaging analysis; format: ADME, organism-based, Neoplasm; conditions: in vivo
[10] = Drug distribution in BALB/C mouse xenografted with human HCT-15 cells assessed as increase in fluorescence intensity in tumor at 12 nmol at iv administration observed after 6 hr by IVIS imaging analysis; format: ADME, organism-based, Neoplasm; conditions: in vivo
[11] = Drug distribution in BALB/C mouse xenografted with human HCT-15 cells assessed as increase in fluorescence intensity in tumor at 12 nmol at iv administration in presence of CYP1B1 inhibitor, ANF observed after 2 to 6 hrs by IVIS imaging analysis; format: ADME, organism-based, Neoplasm; conditions: in vivo, time 2-6 hrs
[12] = Drug distribution in BALB/C mouse xenografted with human HCT-15 cells by measuring fluorescence intensity ratio in tumor at 12 nmol at iv administration observed after 2 hrs by IVIS imaging analysis; format: ADME, organism-based, Neoplasm; conditions: in vivo
[13] = Drug distribution in BALB/C mouse xenografted with human HCT-15 cells by measuring fluorescence intensity ratio in tumor at 12 nmol at iv administration observed after 4 hrs by IVIS imaging analysis; format: ADME, organism-based, Neoplasm; conditions: in vivo
[14] = Drug distribution in BALB/C mouse xenografted with human HCT-15 cells by measuring fluorescence intensity ratio in tumor at 12 nmol at iv administration observed after 6 hrs by IVIS imaging analysis; format: ADME, organism-based, Neoplasm; conditions: in vivo
[15] = Drug distribution in BALB/C mouse xenografted with human HCT-15 cells by measuring fluorescence intensity ratio in tumor at 12 nmol at iv administration observed after 24 hrs by IVIS imaging analysis; format: ADME, organism-based, Neoplasm; conditions: in vivo
[16] = Drug distribution in BALB/C mouse xenografted with human HCT-15 cells by measuring fluorescence intensity ratio in muscle tissue at 12 nmol at iv administration observed after 24 hrs by IVIS imaging analysis; format: ADME, organism-based; conditions: in vivo
[17] = Drug distribution in BALB/C mouse xenografted with human HCT-15 cells by measuring fluorescence intensity ratio in tumor at 12 nmol at iv administration in presence of CYP1B1 inhibitor, ANF observed after 2 hrs by IVIS imaging analysis; format: ADME, organism-based, Neoplasm; conditions: in vivo
[18] = Drug distribution in BALB/C mouse xenografted with human HCT-15 cells by measuring fluorescence intensity ratio in tumor at 12 nmol at iv administration in presence of CYP1B1 inhibitor, ANF observed after 4 hrs by IVIS imaging analysis; format: ADME, organism-based, Neoplasm; conditions: in vivo
[19] = Drug distribution in BALB/C mouse xenografted with human HCT-15 cells by measuring fluorescence intensity ratio in tumor at 12 nmol at iv administration in presence of CYP1B1 inhibitor, ANF observed after 6 hrs by IVIS imaging analysis; format: ADME, organism-based, Neoplasm; conditions: in vivo
[20] = Drug distribution in BALB/C mouse xenografted with human HCT-15 cells by measuring fluorescence intensity ratio in tumor at 12 nmol at iv administration in presence of CYP1B1 inhibitor, ANF observed after 24 hrs by IVIS imaging analysis; format: ADME, organism-based, Neoplasm; conditions: in vivo
[21] = Drug distribution in BALB/C mouse xenografted with human HCT-15 cells by measuring fluorescence intensity ratio in muscle tissue at 12 nmol at iv administration in presence of CYP1B1 inhibitor, ANF observed after 24 hrs by IVIS imaging analysis; format: ADME, organism-based; conditions: in vivo
[22] = Drug distribution in BALB/C mouse xenografted with human HCT-15 cells assessed as increase in fluorescence intensity in liver at 12 nmol at iv administration observed after 24 hrs by IVIS imaging analysis; format: ADME, organism-based; conditions: in vivo
[23] = Drug distribution in BALB/C mouse xenografted with human HCT-15 cells assessed as increase in photoacoustic signal in tumor at 12 nmol at iv administration observed after 2 hrs by photoacoustic imaging analysis; format: ADME, organism-based, Neoplasm; conditions: in vivo
[24] = Drug distribution in BALB/C mouse xenografted with human HCT-15 cells assessed as increase in photoacoustic signal in tumor at 12 nmol at iv administration observed after 6 hrs by photoacoustic imaging analysis; format: ADME, organism-based, Neoplasm; conditions: in vivo
[25] = Drug distribution in BALB/C mouse xenografted with human HCT-15 cells assessed as increase in photoacoustic signal in tumor at 12 nmol at iv administration observed after 24 hrs by photoacoustic imaging analysis; format: ADME, organism-based, Neoplasm; conditions: in vivo

pIC50 (Cytochrome P450 1A2): 5.83
SMILES: COc1ccc(OC)c2c1c(OC)cc1c(=O)cc(-c3cc(F)cc(NC(=O)CCCCCCN)c3)oc12

pIC50 (Cytochrome P450 1A2): 5.80
SMILES: COc1ccc(OC)c2c1c(OC)cc1c(=O)cc(-c3cc(F)cc(NC(=O)COCCN)c3)oc12

pIC50 (Cytochrome P450 1A2): < 5.70
SMILES: COc1ccc(OC)c2c1c(OC)cc1c(=O)cc(-c3cc(F)cc(NC(=O)COCCOCCOCCN)c3)oc12

pIC50 (Cytochrome P450 1A2): 6.28
SMILES: COc1ccc(OC)c2c1c(OC)cc1c(=O)cc(-c3cc(F)cc(OCCOCCN)c3)oc12

pIC50 (Cytochrome P450 1A2): < 5.70
SMILES: COc1ccc(OC)c2c1c(OC)cc1c(=O)cc(-c3cc(F)cc(OCCOCCOCCOCCN)c3)oc12

The remaining lines, values behind:

SMILES: O=c1cc(-c2ccccc2)oc2c1ccc1ccccc12 [ALPHA-NAPHTHOFLAVONE]
pIC50 (Cytochrome P450 1A1): 7.42

SMILES: COc1ccc(OC)c2c1c(OC)cc1c(=O)cc(-c3ccc(O)c(F)c3)oc12
pIC50 (Cytochrome P450 1B1 [1]): 6.95

SMILES: CCN1/C(=C/C=C/C=C/C2=[N+](CCCCCC(=O)NCCOCCOCCOCC(=O)Nc3cc(F)cc(-c4cc(=O)c5cc(OC)c6c(OC)ccc(OC)c6c5o4)c3)c3ccc4c(S(=O)(=O)[O-])cc(S(=O)(=O)O)cc4c3C2(C)C)C(C)(C)c2c1ccc1c(S(=O)(=O)O)cc(S(=O)(=O)O)cc21
Activity (HFF-1): Non-Toxic
viability at 10 µM (HCT-15): > 80%
pKd (Cytochrome P450 1B1 [2]): 6.77
Stability [3]: Stable

SMILES: CCN1/C(=C/C=C/C=C/C2=[N+](CCCCCC(=O)NCCOCCOCCOCCOc3cc(F)cc(-c4cc(=O)c5cc(OC)c6c(OC)ccc(OC)c6c5o4)c3)c3ccc4c(S(=O)(=O)[O-])cc(S(=O)(=O)O)cc4c3C2(C)C)C(C)(C)c2c1ccc1c(S(=O)(=O)O)cc(S(=O)(=O)O)cc21
Activity (HFF-1): Non-Toxic
viability at 10 µM (HCT-15): > 80%
pKd (Cytochrome P450 1B1 [2]): 7.03
Activity (Cytochrome P450 1B1 [4]): Not Active
Activity (Cytochrome P450 1B1 [5]): Active
Activity (Cytochrome P450 1B1 [6]): Active
Activity (Cytochrome P450 1B1 [7]): Active
Activity (Cytochrome P450 1B1 [8]): Not Active
Drug uptake [9]: Active
Drug uptake [10]: Active
Drug uptake [11]: Not Active
Ratio [12]: 1.92
Ratio [13]: 1.95
Ratio [14]: 2.15
Ratio [15]: 1.69
Ratio [16]: 26.51
Ratio [17]: 1.06
Ratio [18]: 1.19
Ratio [19]: 1.32
Ratio [20]: 1.34
Ratio [21]: 12.1
Drug uptake [22]: Active
Drug uptake [23]: Active
Drug uptake [24]: Active
Drug uptake [25]: Not Active
Stability [3]: Stable
